The target of test [1] is T1, Nos2 (Mus musculus, UniProt P29477).
T1 construct: endogenous in cells; host or cells: primary mouse VSMCs transduced with siCtl or siAdamts1 lentivirus
The test can be described thus: NO / total NOx production in VSMCs transduced with siAdamts1 and treated with Nos2 inhibitors. The class given is cell-based. Particulars: FIG. 16: 1400W (2 μm), AG, GW273629 (20 μm), 1-NIL (3 mM), Clotrimazole (20 μM). The procedure:
FIG. 17. Representative images (n=4) of NO production (red) and GFP fluorescence (green) in unfixed VSMCs transduced with siCtl or siAdamts1 and treated with the Nos2 inhibitors as indicated. Bar, 50 μm.
Mouse vascular smooth muscle cells (VSMCs) were isolated and grown as described (Esteban et al., 2011). All experiments were performed during passages 3-7. VSMCs were infected at a multiplicity of infection (MOI)=3 over 5 h. The medium was then replaced with fresh DMEM supplemented with 10% FBS, and cells were cultured for 3 more days, serum-starved for 48 h and then stimulated with Ang-II for 6 h for protein assays or 4 h for mRNA expression analysis.

In test [2] the test system is wt mice. Briefly: Ang-II treatment of wt mice for 28 days (ultrasonography of aorta). The class given is in vivo, mouse. An excerpt: Animal procedures were approved by the CNIC Ethics Committee and conformed to European Union guidelines for the care and experimental use of animals. Adamts1+/− mice were obtained from the European Mouse Mutant Archive [(EM:02291) B6; 129P2-Adamts1<tm1Dgen>/H] and carried a LacZ-Neo cassette to replace a genomic sequence (c7784) between exon1 and 2 in the Adamts1 target allele. Fbn1C1039G/+ mice (Judge et al., 2004), harboring a mutation in the Fbn1 gene, and Nos2−/− mice (Laubach et al., 1995) were obtained from Jackson Laboratories (JAX mice stock #012885 and 007072, respectively). These 3 strains had been previously backcrossed to C57BL/6 for more than nine generations. […]
(§1) For in vivo ultrasound images, the aortic diameter was monitored in isofluorane-anesthetized mice (2% isofluorane) by high-frequency ultrasound with a VEVO 2100 echography device (VisualSonics, Toronto, Canada). Maximal internal diameters of aortic images were measured using VEVO 2100 software, version 1.5.0. […]
To investigate the contribution of Adamts1 to Ang-II-elicited aortic dilation and aneurysm, we used Adamts1 deficient mice from the European Mouse Mutant Archive (EM: 02291). […] No aneurysms or lethal dissections were detected in Adamts1+/− mice in the absence of Ang-II at this age.

Test [3] concerns Adamts1+/− mice. Briefly: Treatment of Adamts1+/− mice (aortic diameter, BP, histology). The class given is in vivo, mouse. An excerpt:
(§2) Animal procedures were approved by the CNIC Ethics Committee and conformed to European Union guidelines for the care and experimental use of animals. Adamts1+/− mice were obtained from the European Mouse Mutant Archive [(EM:02291) B6; 129P2-Adamts1<tm1Dgen>/H] and carried a LacZ-Neo cassette to replace a genomic sequence (c7784) between exon1 and 2 in the Adamts1 target allele. Fbn1C1039G/+ mice (Judge et al., 2004), harboring a mutation in the Fbn1 gene, and Nos2−/− mice (Laubach et al., 1995) were obtained from Jackson Laboratories (JAX mice stock #012885 and 007072, respectively). These 3 strains had been previously backcrossed to C57BL/6 for more than nine generations. All mice were genotyped by PCR of tail samples using the following primers: Adamts1 mice (5′-[…]-3′(SEQ ID NO: 5), 5′-[…] (SEQ ID NO: 6)/[…]-3′ (SEQ ID NO: 7)); Nos2−/− mice (5′[…] 3′ (SEQ ID NO: 8); 5′ […] 3′(SEQ ID NO: 9), 5′ […] 3′) (SEQ ID NO: 10); Fbn1C1039G/+ mice (5′CTCATCATTTTTGGCCAGTTG 3′ (SEQ ID NO: 11), 5′GCACTTGATGCACATTCACA 3′ (SEQ ID NO: 12)). Wild-type littermates were used as controls unless otherwise specified. Mice were treated with Ang-II (Sigma-Aldrich) at 1 μg/kg/min or losartan (Sigma Aldrich) at 10 mg/kg/day using subcutaneous osmotic minipumps (Alzet Corp). The monoclonal pan-antibody against TGFβ1, 2, 3 clone 1D11 (BioXcell) was injected intraperitoneally 3 times per week at 10 mg/kg.
(§3) Arterial blood pressure (BP) was measured in mouse tails using the automated BP-2000 Blood Pressure Analysis System (Visitech Systems, Apex, NC, USA). In brief, mice were trained for BP measurements every day for one week. After training, BP was measured one day before treatment or before lentiviral infection to determine the baseline BP values in each mouse cohort. Measurements were repeated several times during experiments. BP measurements were recorded in mice located in a tail-cuff restrainer, over a warmed surface (37° C.). Fifteen consecutive systolic and diastolic BP measurements were made, and the last ten readings per mouse were recorded and averaged.
(§4) For in vivo ultrasound images, the aortic diameter was monitored in isofluorane-anesthetized mice (2% isofluorane) by high-frequency ultrasound with a VEVO 2100 echography device (VisualSonics, Toronto, Canada). Maximal internal diameters of aortic images were measured using VEVO 2100 software, version 1.5.0. All recordings were made by a cardiologist and a technician who were blinded to animal genotype and treatment. Measurements were taken before lentivirus administration or the corresponding treatments to determine the baseline diameters, and measurements were repeated several times during the experiment.
Images of Masson's trichrome and EVG staining were analyzed for collagen content with ImageJ (http://rsbweb.nih.gov/ij/index.html) and with MetaMorph (Molecular Devices; Sunnyvale, California) for quantification of elastin breaks. For each animal, elastin breaks were counted in 3 sections and the mean number of breaks was calculated. Images were processed for presentation with Photoshop and Illustrator (Adobe).

Test [4] has as its system siAdamts1-transduced C57BL/6 mice. Briefly: Aortopathy induced by siAdamts1 lentivirus (aortic Adamts1 knockdown) in C57BL/6 mice. The class given is in vivo, mouse. Particulars: for Elastic fiber fragmentation (elastolysis, elastin breaks) / Fibrosis (collagen content): aortic sections, end of experiment; for Aortic dilation (AsAo and AbAo diameter) induced by siAdamts1: anti-TGFβ 10 mg/kg i.p. 3 times per week, L-NAME 0.5 mg/ml in drinking water; for Systolic and diastolic BP (hypotension) in siAdamts1-transduced mice: same treatments as E4.
Excerpt: as §2, §3, §4
For in vivo transduction experiments, animals were anesthetized (ketamine/xilacine) and a small incision was made to expose the right jugular vein (Esteban et al., 2011). Virus solution ([…] in PBS) was inoculated directly into the right jugular vein 3 weeks before Ang-II mini-pump implantation or one day before monitoring of aortic dilation. Transduction efficiency was analyzed in aortic samples by immunohistochemistry for GFP and Adamts1.
Images of Masson's trichrome and EVG staining were analyzed for collagen content with ImageJ (http://rsbweb.nih.gov/ij/index.html) and with MetaMorph (Molecular Devices; Sunnyvale, California) for quantification of elastin breaks. For each animal, elastin breaks were counted in 3 sections and the mean number of breaks was calculated. Images were processed for presentation with Photoshop and Illustrator (Adobe). […]
Aortic extracts were prepared from whole aortas as described for immunoblot assays, but in the absence of DTT. Extracts (15 μg) were fractionated under nonreducing conditions on SDS-polyacrylamide gels containing 1% gelatin. […]

Test [5] concerns Fbn1C1039G/+ mice. Briefly: Treatment of Fbn1C1039G/+ mice (Marfan syndrome model). It is filed as in vivo, mouse.
Excerpt: as §2, §3, §1
Images of Masson's trichrome and EVG staining were analyzed for collagen content with ImageJ (http://rsbweb.nih.gov/ij/index.html) and with MetaMorph (Molecular Devices; Sunnyvale, California) for quantification of elastin breaks. For each animal, elastin breaks were counted in 3 sections and the mean number of breaks was calculated. […]

Test [6] has as its system mouse model of mild MFS. Particulars: cited from earlier work.
Test [7] deals with model of severe MFS. Particulars: compared with mild MFS model; cited from earlier work.
Test [8] deals with aortic root enlargement. Particulars: randomized clinical trials, cited from earlier work.
The target of test [9] is NOS2 (Homo sapiens, UniProt P35228). Particulars: as reported previously; cited from earlier work.
Sequence of NOS2 (P35228 whole entry): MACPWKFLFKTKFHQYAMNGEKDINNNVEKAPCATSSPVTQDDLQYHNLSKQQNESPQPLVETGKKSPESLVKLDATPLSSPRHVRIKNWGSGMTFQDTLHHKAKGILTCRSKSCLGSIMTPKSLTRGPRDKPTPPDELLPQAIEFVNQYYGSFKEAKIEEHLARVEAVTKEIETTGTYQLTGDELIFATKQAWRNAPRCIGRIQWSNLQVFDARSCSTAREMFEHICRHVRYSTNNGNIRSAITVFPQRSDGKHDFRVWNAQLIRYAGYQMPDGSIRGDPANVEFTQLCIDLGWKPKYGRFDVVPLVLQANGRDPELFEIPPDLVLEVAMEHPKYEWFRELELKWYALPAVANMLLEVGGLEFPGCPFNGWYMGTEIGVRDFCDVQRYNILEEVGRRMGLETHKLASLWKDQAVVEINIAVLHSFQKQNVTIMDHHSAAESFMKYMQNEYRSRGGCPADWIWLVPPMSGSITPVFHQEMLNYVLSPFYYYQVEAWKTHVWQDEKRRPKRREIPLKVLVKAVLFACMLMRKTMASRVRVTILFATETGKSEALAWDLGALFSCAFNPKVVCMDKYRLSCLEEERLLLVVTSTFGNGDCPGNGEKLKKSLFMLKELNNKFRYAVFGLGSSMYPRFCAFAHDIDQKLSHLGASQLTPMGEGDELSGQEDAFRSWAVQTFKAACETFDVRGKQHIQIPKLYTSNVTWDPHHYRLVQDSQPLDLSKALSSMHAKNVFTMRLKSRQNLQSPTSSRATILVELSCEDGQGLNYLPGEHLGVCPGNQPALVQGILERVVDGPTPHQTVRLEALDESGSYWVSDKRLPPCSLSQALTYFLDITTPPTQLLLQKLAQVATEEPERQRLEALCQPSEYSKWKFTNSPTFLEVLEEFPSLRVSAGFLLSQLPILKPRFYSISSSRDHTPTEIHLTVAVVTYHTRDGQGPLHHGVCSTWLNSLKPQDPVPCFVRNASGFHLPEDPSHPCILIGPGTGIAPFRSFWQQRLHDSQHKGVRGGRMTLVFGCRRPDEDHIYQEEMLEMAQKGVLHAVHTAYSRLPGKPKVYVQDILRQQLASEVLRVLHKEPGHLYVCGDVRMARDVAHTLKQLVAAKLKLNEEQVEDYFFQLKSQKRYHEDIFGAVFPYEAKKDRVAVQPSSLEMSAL
Setting [10] is: L-NAME 21 days, end of experiment.

Turning to `CC(=N)NCCS(=O)(=O)CC(N)C(=O)O` (centres unmarked) [GW273629], in test [1], the “NO production (total NOx in conditioned media, NO staining)” value (“NO production” for short) is “reduced the expression of NO”.

As for “Angiotensin-II (DRVYIHPF; Angiotensin-2; UniProt P01019 25-32, looked up) [Ang-II]”, the “Aortic dilation (AR, AsAo, AbAo)” value in [2] (8-week-old wt mice, Ang-II for 28 days, 1 μg/kg/min minipump) is “promoted generalized aortic dilation”. Besides, the “AA or lethal aortic dissections” value in test [2] (wt mice, Ang-II 28 days) is recorded as “barely induced AA or lethal aortic dissections”; in test [3] (Adamts1+/− mice, Ang-II 28 days), “readily triggered their formation”.

For the molecule Aminoguanidine, the “Aortic diameter (ascending and abdominal aorta)” value in [3] (AG 1.5 gr/1 in drinking water) is on record as “reduces aortic diameter”. Also, the “NO production” value in test [1] was “reduced the expression of NO”.

For the molecule `COC(=O)[C@@H](N)CCCNC(=N)N[N+](=O)[O-].Cl` [L-NAME, Nω-Nitro-L-arginine methyl ester hydrochloride], the “Mmp9 activation (zymography)” value in test [4] (aortic extracts from siAdamts1-transduced mice) is listed as “prevented Mmp9 activation”. Besides, in [4], the “Elastic fiber fragmentation (elastolysis, elastin breaks)” value is “blocked elastolysis”; the “Fibrosis (collagen content)” value is reported as “decreased the fibrosis”; the “Systolic and diastolic BP (hypotension) in siAdamts1-transduced mice” value is recorded as “hypertensive effect”. Besides, in test [4] (losartan 10 mg/kg/day minipump), the “Aortic dilation (AsAo and AbAo diameter) induced by siAdamts1” value is “prevented siAdamts1-induced dilation of the AsAo and the AbAo”. Besides, the “Time to complete reversal of aortic dilation” value in [3] (Adamts1+/− and MFS mice) was 1 week. In test [3] (setting [10]), the Elastic fiber fragmentation entry was “decreased elastic fiber fragmentation” and the “Fibrosis (collagen content)” value is given as “diminished fibrosis”. Moreover, in test [3] (L-NAME in drinking water for 21 days), the “AsAo and AbAo diameter” value was “rapidly decreased AsAo and AbAo diameter to normal levels”. Also, the “Systolic and diastolic BP” value in test [3] (L-NAME in drinking water for 21 days, end of experiment) is “reverted the systolic and diastolic hypotension”. Also, in [1], the “NO production” value is reported as “reduced the expression of NO”. Further, the “AsAo and AbAo diameters” value in [5] (12-week-old mice, L-NAME in drinking water for 21 days) was “rapidly decreased the AsAo and AbAo diameters to normal levels”. The Collagen content result in test [5] (L-NAME 21 days, AsAo and AbAo) is recorded as “unaffected”. In test [5] (setting [10]), the Elastic fiber fragmentation result is recorded as “diminished elastic fiber fragmentation”; the “Systolic and diastolic BP” value was “augmented the systolic and diastolic BP”.

`CC(=N)NCc1cccc(CN)c1` [1400W]: in test [1], the “NO production” value was “reduced the expression of NO”.

`CCCCc1nc(Cl)c(CO)n1Cc1ccc(-c2ccccc2-c2nn[nH]n2)cc1` [losartan]: in test [6], the Aortic dilation result is recorded as “these processes are also inhibited” and the Elastic lamellae fragmentation entry is on record as “these processes are also inhibited”. Moreover, in test [4], the “Elastic fiber fragmentation (elastolysis, elastin breaks)” value is given as “did not reduce elastic fiber fragmentation”; the “Fibrosis (collagen content)” value was “did not reduce elastic fiber fragmentation or fibrosis”; the “Systolic and diastolic BP (hypotension) in siAdamts1-transduced mice” value was “did not prevent hypotension”. The “Aortic dilation (AsAo and AbAo diameter) induced by siAdamts1” value in test [4] (losartan 10 mg/kg/day minipump) is given as “neither treatment inhibited aortic dilation”. Moreover, the “BP in control mice” value in test [4] (siCtl control mice, losartan 10 mg/kg/day minipump) is “reduced BP in control mice”. The “Effectiveness in severe MFS model” value in [7] is “less effective”. The “Reduction of the rate of aortic root enlargement” value in test [8] (versus atenolol) is given as “no more effective”. In test [8], the “Benefit of dual therapy with atenolol” value is reported as “no additional benefit”.

In the case of `CC(=N)NCCCC[C@H](N)C(=O)O` [L-NIL], the “NO production” value in test [1] is given as “reduced the expression of NO”.

As to `Clc1ccccc1C(c1ccccc1)(c1ccccc1)n1ccnc1` [Clotrimazole], the “Dimerization of NOS2” value in [9] is “inhibits the dimerization of NOS2”. The “NO production” value in [1] is given as “reduced the expression of NO”.

These data come from patent publication US12163161B2, “In vitro method for identifying thoracic aortic aneurysms (TAA) in a subject” (CENTRO NACIONAL DE INVESTIGACIONES CARDIOVASCULARES CARLOS …, priority 2016, dated 2024).
